From patent publication US6352958B1, “Cycloimido-substituted benzofused heterocyclic herbicides” (FMC Corporation, priority 1997, dated 2002)

Columns and labels:
Type in all cases: in vivo
[1] = tested on: common chickweed (Stellaria media); test: Postemergence herbicidal activity, chickweed; details: rate of application 0.3 Kg/Ha, rated after 12-17 days
Procedure: (§1) The benzofused heterocyclic compounds of this invention were tested for pre- and postemergence herbicidal activity using a variety of crops and weeds. The test plants included soybean (Glycine max var. Winchester), field corn (Zea mays var. Pioneer 3732), wheat (Triticum aestivum var. Lew), morningglory (Ipomea lacunosa or Ipomea hederacea), velvetleaf (Abutilon theophrasti), green foxtail (Setaria viridis), Johnsongrass (Sorghum halepense), blackgrass (Aloepecurus myosuroides), common chickweed (Stellaria media), and common cocklebur (Xanthium strumarium L.).
(§2) For preemergence testing, two disposable fiber flats (8 cm×15 cm×25 cm) for each rate of application of each candidate herbicide were filled to an approximate depth of 6.5 cm with steam-sterilized sandy loam soil. The soil was leveled and impressed with a template to provide five evenly spaced furrows 13 cm long and 0.5 cm deep in each flat. Seeds of soybean, wheat, corn, green foxtail, and johnsongrass were planted in the furrows of the first flat, and seeds of velvetleaf, morningglory, common chickweed, cocklebur, and blackgrass were planted in the furrows of the second flat. The five-row template was employed to firmly press the seeds into place. A topping soil of equal portions of sand and sandy loam soil was placed uniformly on top of each flat to a depth of approximately 0.5 cm. Flats for postemergence testing were prepared in the same manner except that they were planted 9-14 days prior to the preemergence flats and were placed in a greenhouse and watered, thus allowing the seeds to germinate and the foliage to develop.
(§3) In both pre- and postemergence tests, a stock solution of the candidate herbicide was prepared by dissolving 0.27 g of the compound in 20 mL of water/acetone (50/50) containing 0.5% v/v sorbitan monolaurate. For an application rate of 3000 g/ha of herbicide a 10 mL portion of the stock solution was diluted with water/acetone (50/50) to 45 mL.
(§4) The preemergence flats were initially subjected to a light water spray. The four flats were placed two by two along a conveyor belt (i.e., the two preemergence followed by the two postemergence flats). The conveyor belt fed under a spray nozzle mounted about ten inches above the post-emergent foliage. The preemergent flats were elevated on the belt so that the soil surface was at the same level below the spray nozzle as the foliage canopy of the postemergent plants. The spray of herbicidal solution was commenced and once stabilized, the flats were passed under the spray at a speed to receive a coverage equivalent of 100 L/ha. At this coverage the application rates are those shown in the above table for the individual herbicidal solutions. The preemergence flats were watered immediately thereafter, placed in the greenhouse and watered regularly at the soil surface. The postemergence flats were immediately placed in the green-house and not watered until 24 hours after treatment with the test solution. Thereafter they were regularly watered at ground level. After 12-17 days the plants were examined and the phytotoxicity data were recorded.
(§5) Phytotoxicity data were taken as percent control. Percent control was determined by a method similar to the 0 to 100 rating system disclosed in “Research Methods in Weed Science,” 2nd ed., B. Truelove, Ed.; Southern Weed Science Society; Auburn University, Auburn, Ala., 1977.

[2] = tested on: green foxtail (Setaria viridis); test: Postemergence herbicidal activity, green foxtail; details: rate of application 0.3 Kg/Ha, rated after 12-17 days
Procedure: as §1, §2, §3, §4, §5

[3] = tested on: morningglory (Ipomea lacunosa or Ipomea hederacea); test: Postemergence herbicidal activity, morningglory; details: rate of application 0.3 Kg/Ha, rated after 12-17 days
Procedure: as §1, §2, §3, §4, §5

[4] = tested on: field corn (Zea mays var. Pioneer 3732); test: Postemergence herbicidal activity, corn; details: rate of application 0.3 Kg/Ha, rated after 12-17 days
Procedure: as §1, §2, §3, §4, §5

[5] = tested on: morningglory (Ipomea lacunosa or Ipomea hederacea); test: Preemergence herbicidal activity, morningglory; details: Rate of Application 0.3 Kg/Ha, examined after 12-17 days
Procedure: as §1, §2, §3, §4, §5

[6] = tested on: Johnsongrass (Sorghum halepense); test: Preemergence herbicidal activity, johnsongrass; details: Rate of Application 0.3 Kg/Ha, examined after 12-17 days
Procedure: as §1, §2, §3, §4, §5

[7] = tested on: Johnsongrass (Sorghum halepense); test: Postemergence herbicidal activity, johnsongrass; details: rate of application 0.3 Kg/Ha, rated after 12-17 days
Procedure: as §1, §2, §3, §4, §5

[8] = tested on: common cocklebur (Xanthium strumarium L.); test: Postemergence herbicidal activity, cocklebur; details: rate of application 0.3 Kg/Ha, rated after 12-17 days
Procedure: as §1, §2, §3, §4, §5

[9] = tested on: wheat (Triticum aestivum var. Lew); test: Preemergence herbicidal activity, wheat; details: Rate of Application 0.3 Kg/Ha, examined after 12-17 days
Procedure: as §1, §2, §3, §4, §5

[10] = tested on: field corn (Zea mays var. Pioneer 3732); test: Preemergence herbicidal activity, corn; details: Rate of Application 0.3 Kg/Ha, examined after 12-17 days
Procedure: as §1, §2, §3, §4, §5

[11] = tested on: velvetleaf (Abutilon theophrasti); test: Preemergence herbicidal activity, velvetleaf; details: Rate of Application 0.3 Kg/Ha, examined after 12-17 days
Procedure: as §1, §2, §3, §4, §5

[12] = tested on: green foxtail (Setaria viridis); test: Preemergence herbicidal activity, green foxtail; details: Rate of Application 0.3 Kg/Ha, examined after 12-17 days
Procedure: as §1, §2, §3, §4, §5

[13] = tested on: soybean (Glycine max var. Winchester); test: Preemergence herbicidal activity, soybean; details: Rate of Application 0.3 Kg/Ha, examined after 12-17 days
Procedure: as §1, §2, §3, §4, §5

[14] = tested on: common chickweed (Stellaria media); test: Preemergence herbicidal activity, chickweed; details: Rate of Application 0.3 Kg/Ha, examined after 12-17 days
Procedure: as §1, §2, §3, §4, §5

[15] = tested on: soybean (Glycine max var. Winchester); test: Postemergence herbicidal activity, soybean; details: rate of application 0.3 Kg/Ha, rated after 12-17 days
Procedure: as §1, §2, §3, §4, §5

[16] = tested on: velvetleaf (Abutilon theophrasti); test: Postemergence herbicidal activity, velvetleaf; details: rate of application 0.3 Kg/Ha, rated after 12-17 days
Procedure: as §1, §2, §3, §4, §5

[17] = tested on: wheat (Triticum aestivum var. Lew); test: Postemergence herbicidal activity, wheat; details: rate of application 0.3 Kg/Ha, rated after 12-17 days
Procedure: as §1, §2, §3, §4, §5

[18] = tested on: common cocklebur (Xanthium strumarium L.); test: Preemergence herbicidal activity, cocklebur; details: Rate of Application 0.3 Kg/Ha, examined after 12-17 days
Procedure: as §1, §2, §3, §4, §5

Structure (SMILES)	Postemergence herbicidal activity (% control) STEME [1] [%]	Postemergence herbicidal activity (% control) SETVI [2] [%]	Postemergence herbicidal activity (% control) IPOSS [3] [%]	Postemergence herbicidal activity (% control) CRN [4] [%]	PREEMERGENCE HERBICIDAL ACTIVITY (% CONTROL) IPOSS [5] [%]	PREEMERGENCE HERBICIDAL ACTIVITY (% CONTROL) SORHA [6] [%]	Postemergence herbicidal activity (% control) SORHA [7] [%]	Postemergence herbicidal activity (% control) XANPE [8] [%]	PREEMERGENCE HERBICIDAL ACTIVITY (% CONTROL) WHT [9] [%]	PREEMERGENCE HERBICIDAL ACTIVITY (% CONTROL) CRN [10] [%]	PREEMERGENCE HERBICIDAL ACTIVITY (% CONTROL) ABUTH [11] [%]	PREEMERGENCE HERBICIDAL ACTIVITY (% CONTROL) SETVI [12] [%]	PREEMERGENCE HERBICIDAL ACTIVITY (% CONTROL) SOY [13] [%]	PREEMERGENCE HERBICIDAL ACTIVITY (% CONTROL) STEME [14] [%]	Postemergence herbicidal activity (% control) SOY [15] [%]	Postemergence herbicidal activity (% control) ABUTH [16] [%]	Postemergence herbicidal activity (% control) WHT [17] [%]	PREEMERGENCE HERBICIDAL ACTIVITY (% CONTROL) XANPE [18] [%]
Cn1c(C(F)(F)F)cc(=O)n(-c2ccc(Cl)c3cc(C(C)(C)O)oc23)c1=O [Compound 241]	85	100	100	70	100	100	70	95	70	95	100	100	60	100	90	100	60	100
CC(O)Cc1cc2c(Cl)cc(F)c(-n3c(=O)cc(C(F)(F)F)n(C)c3=O)c2o1 (centres unmarked) [Compound 243]	100	100	100	95	100	100	100	100	80	95	100	100	100	100	95	100	70	100
COC(=O)Cc1nc2c(-n3c(=O)cc(C(F)(F)F)n(C)c3=O)c(F)cc(Br)c2o1 [Compound 49]	40	100	100	80	100	90	90	30	50	80	100	100	95	20	95	100	70	90
CCCc1cc2c(Cl)cc(F)c(-n3c(=O)cc(C(F)(F)F)n(C)c3=O)c2o1 [Compound 223]	100	100	100	90	100	100	100	100	50	80	100	100	100	100	95	100	40	90
Cn1c(C(F)(F)F)cc(=O)n(-c2ccc(Cl)c3cc(CBr)oc23)c1=O [Compound 232]	20	30	80	30	80	25	10	40	30	50	90	40	20	20	75	100	50	10
CC(=O)OC(C)(C)c1cc2c(Cl)cc(F)c(-n3c(=O)cc(C(F)(F)F)n(C)c3=O)c2o1 [Compound 253]	100	100	100	100	100	100	100	100	95	100	100	100	100	100	95	100	100	
